Assays:
Type in all cases: cell-based
[1] = tested on: E. cloacae JMI 36; test: MIC, antibacterial and synergistic activity; conditions: substance alone
Method: (§1) In the Tables 10-12, compounds of the present invention were tested in combination with various antibiotics against metallo β-lactamase producing bacteria.

[2] = tested on: A. baumanii JMI 2659; test: MIC, antibacterial and synergistic activity; conditions: substance alone
Method: as §1

[3] = tested on: E. coli JMI 10767; test: MIC, antibacterial and synergistic activity; conditions: substance alone
Method: as §1

[4] = tested on: P. aerug JMI 149; test: MIC, antibacterial and synergistic activity; conditions: substance alone
Method: as §1

[5] = tested on: E. coli ATCC 25922; test: MIC, antibacterial and synergistic activity
Method: as §1

[6] = tested on: K. pneumo JMI 2697; test: MIC, antibacterial and synergistic activity; conditions: substance alone
Method: as §1

[7] = tested on: E. coli JMI 2671; test: MIC, antibacterial and synergistic activity; conditions: substance alone
Method: as §1

[8] = tested on: K. pneumo JMI 2699; test: MIC, antibacterial and synergistic activity; conditions: substance alone
Method: as §1

[9] = tested on: E. coli JMI 2692; test: MIC, antibacterial and synergistic activity; conditions: substance alone
Method: as §1

[10] = tested on: K. pneumo JMI 2693; test: MIC, antibacterial and synergistic activity; conditions: substance alone
Method: as §1

[11] = tested on: E. coli JMI 4080; test: MIC, antibacterial and synergistic activity; conditions: substance alone
[12] = tested on: K. pneumo JMI 4106; test: MIC, antibacterial and synergistic activity; conditions: substance alone
[13] = tested on: K. pneumo JMI 4109; test: MIC, antibacterial and synergistic activity; conditions: substance alone
[14] = tested on: metallo β-lactamase producing bacteria; test: MIC in combination with various antibiotics against metallo β-lactamase producing bacteria (Tables 10-12); conditions: substance alone
Method: as §1

[15] = tested on: K. pneumo JMI 2673; test: MIC, antibacterial and synergistic activity; conditions: substance alone
[16] = tested on: E. coli JMI 11103; test: MIC, antibacterial and synergistic activity; conditions: substance alone
[17] = tested on: K. pneumo JMI 2674; test: MIC, antibacterial and synergistic activity; conditions: substance alone
[18] = tested on: E. coli JMI 2665; test: MIC, antibacterial and synergistic activity; conditions: substance alone
[19] = tested on: K. pneumo JMI 2681; test: MIC, antibacterial and synergistic activity; conditions: substance alone
[20] = tested on: E. coli JMI 10770; test: MIC, antibacterial and synergistic activity; conditions: substance alone
[21] = tested on: E. coli JMI 10768; test: MIC, antibacterial and synergistic activity; conditions: substance alone
[22] = tested on: E. coli JMI 4103; test: MIC, antibacterial and synergistic activity; conditions: substance alone
[23] = tested on: P. aerug JMI 2686; test: MIC, antibacterial and synergistic activity; conditions: substance alone
[24] = tested on: K. pneumo JMI 4088; test: MIC, antibacterial and synergistic activity; conditions: substance alone

## CC(C)(O/N=C(\C(=O)N[C@@H]1C(=O)N2C(C(=O)[O-])=C(C[n+]3ccccc3)CS[C@H]12)c1csc(N)n1)C(=O)O [Ceftazidime, ceftazidime]
[1]; E. cloacae JMI 36, P99
  MIC alone: 128 µg/mL
[1]; E. cloacae JMI 36, enzyme P99
  MIC alone: 128 µg/mL
[2]; A. baumanii JMI 2659, Ges-14 (Cpase)
  MIC alone: 512 µg/mL
[2]; A. baumanii JMI 2659, enzyme Ges-14 (Cpase)
  MIC alone: 512 µg/mL
[3]; E. coli JMI 10767, Wt
  MIC alone: ≤1 µg/mL
[3]; E. coli JMI 10767, enzyme Wt
  MIC alone: ≤1 µg/mL
[4]; P. aerug JMI 149, Bla+++D+
  MIC alone: 256 µg/mL
[4]; P. aerug JMI 149, enzyme Bla+++D+
  MIC alone: 256 µg/mL
[5]; E. coli ATCC 25922, enzyme Wt; substance alone
  MIC alone: 0.25 µg/mL
[5]; E. coli ATCC 25922; enzyme Wt; substance alone
  MIC alone: 0.25 µg/mL
[6]; K. pneumo JMI 2697, IMP-4 (Cpase)
  MIC alone: >512 µg/mL
[6]; K. pneumo JMI 2697, enzyme IMP-4 (Cpase)
  MIC alone: >512 µg/mL
[7]; E. coli JMI 2671, VIM-19 (Cpase)
  MIC alone: 64 µg/mL
[7]; E. coli JMI 2671, enzyme VIM-19 (Cpase)
  MIC alone: 64 µg/mL
[8]; K. pneumo JMI 2699, VIM-1, CTX-M3
  MIC alone: >512 µg/mL
[8]; K. pneumo JMI 2699, enzyme VIM-1, CTX-M3
  MIC alone: >512 µg/mL
[9]; E. coli JMI 2692, NDM-1, TEM-1, CTX-M-15
  MIC alone: >512 µg/mL
[9]; E. coli JMI 2692, enzyme NDM-1, TEM-1, CTX-M-15
  MIC alone: >512 µg/mL
[10]; K. pneumo JMI 2693, NDM-1 (Cpase)
  MIC alone: >512 µg/mL
[10]; K. pneumo JMI 2693, enzyme NDM-1 (Cpase)
  MIC alone: >512 µg/mL
[11]; E. coli JMI 4080, Tem-10
  MIC alone: 64 µg/mL
[11]; E. coli JMI 4080, enzyme Tem-10
  MIC alone: 64 µg/mL
[12]; K. pneumo JMI 4106, KPC-3, TEM-1, SHV-12, SHV-141
  MIC alone: >512 µg/mL
[12]; K. pneumo JMI 4106, enzyme KPC-3, TEM-1, SHV-12, SHV-141
  MIC alone: >512 µg/mL
[13]; K. pneumo JMI 4109, SHV-1, SHV-12
  MIC alone: 8 µg/mL
[13]; K. pneumo JMI 4109, enzyme SHV-1, SHV-12
  MIC alone: 8 µg/mL
[14]; Citrobacter freundii isolate 49469, NDM-1
  MIC alone: >256 µg/mL
[14]; Enterobacter aerogenes isolate 8397, VIM-1
  MIC alone: >256 µg/mL
[14]; Enterobacter aerogenes isolate 47683, VIM-12
  MIC alone: 256 µg/mL
[14]; Enterobacter cloacae isolate 4, VIM-6
  MIC alone: 256 µg/mL
[14]; Enterobacter cloacae isolate 10, IMP-26
  MIC alone: >256 µg/mL
[14]; Enterobacter cloacae isolate 25, IMP-4
  MIC alone: >256 µg/mL
[14]; Enterobacter cloacae isolate 1068, VIM-2
  MIC alone: 128 µg/mL
[14]; Enterobacter cloacae isolate 1280, VIM-5
  MIC alone: 64 µg/mL
[14]; Enterobacter cloacae isolate 1471, VIM-1
  MIC alone: >256 µg/mL
[14]; Enterobacter cloacae isolate 1874, IMP-21
  MIC alone: 32 µg/mL
[14]; Enterobacter cloacae isolate 3686, IMP-1
  MIC alone: >256 µg/mL
[14]; Enterobacter cloacae isolate 53477, NDM-1
  MIC alone: >256 µg/mL
[14]; Escherichia coli isolate 13, IMP-1
  MIC alone: 256 µg/mL
[14]; Escherichia coli isolate 17, NDM-1
  MIC alone: >256 µg/mL
[14]; Escherichia coli isolate 49, NDM-1
  MIC alone: >256 µg/mL
[14]; Escherichia coli isolate 53749, NDM-1
  MIC alone: >256 µg/mL
[14]; Klebsiella oxytoca isolate 24825, IMP-26
  MIC alone: >256 µg/mL
[14]; Klebsiella oxytoca isolate 31141, VIM-23
  MIC alone: 128 µg/mL
[14]; Klebsiella pneumoniae isolate 16, VIM-5
  MIC alone: >256 µg/mL
[14]; Klebsiella pneumoniae isolate 38, NDM-1
  MIC alone: >256 µg/mL
[14]; Providencia stuartii isolate 26582, VIM-1
  MIC alone: >256 µg/mL
[14]; Serratia marcescens isolate 35, IMP-4
  MIC alone: 64 µg/mL
[14]; Serratia marcescens isolate 36098, IMP-19
  MIC alone: 128 µg/mL
[15]; K. pneumo JMI 2673, CTX-M14 (ESBL)
  MIC alone: 32 µg/mL
[15]; K. pneumo JMI 2673, enzyme CTX-M14 (ESBL)
  MIC alone: 32 µg/mL
[16]; E. coli JMI 11103, CTX-M15 (Intermediate ESBL)
  MIC alone: 32 µg/mL
[16]; E. coli JMI 11103, enzyme CTX-M15 (Intermediate ESBL)
  MIC alone: 32 µg/mL
[17]; K. pneumo JMI 2674, CTX-M15 (ESBL)
  MIC alone: 512 µg/mL
[17]; K. pneumo JMI 2674, enzyme CTX-M15 (ESBL)
  MIC alone: 512 µg/mL
[18]; E. coli JMI 2665, CMY-2 (Plasmid Cpase)
  MIC alone: 8 µg/mL
[18]; E. coli JMI 2665, enzyme CMY-2 (Plasmid Cpase)
  MIC alone: 8 µg/mL
[19]; K. pneumo JMI 2681, Oxa-48 (Cpase)
  MIC alone: 512 µg/mL
[19]; K. pneumo JMI 2681, enzyme Oxa-48 (Cpase)
  MIC alone: 512 µg/mL
[20]; E. coli JMI 10770, CTX-M15 (Hyper ESBL)
  MIC alone: 64 µg/mL
[20]; E. coli JMI 10770, enzyme CTX-M15 (Hyper ESBL)
  MIC alone: 64 µg/mL
[21]; E. coli JMI 10768, CTX-M15 (Weak ESBL)
  MIC alone: 8 µg/mL
[21]; E. coli JMI 10768, enzyme CTX-M15 (Weak ESBL)
  MIC alone: 8 µg/mL
[22]; E. coli JMI 4103, KPC-2, Tem-1, CMY-Type
  MIC alone: >512 µg/mL
[22]; E. coli JMI 4103, enzyme KPC-2, Tem-1, CMY-Type
  MIC alone: >512 µg/mL
[23]; P. aerug JMI 2686, KPC-2 (Cpase)
  MIC alone: 512 µg/mL
[23]; P. aerug JMI 2686, enzyme KPC-2 (Cpase)
  MIC alone: 512 µg/mL
[24]; K. pneumo JMI 4088, KPC-3 (Cpase)
  MIC alone: >512 µg/mL
[24]; K. pneumo JMI 4088, enzyme KPC-3 (Cpase)
  MIC alone: >512 µg/mL

Reference: patent publication US10544146B2, “Bicyclic compounds and their use as antibacterial agents and β-lactamase inhibitors” (priority 2011, dated 2020)
